# According to article PMC11124341, “4-Hydroxybenzoic Acid-Based Hydrazide–Hydrazones as Potent Growth Inhibition Agents of Laccase-Producing Phytopathogenic Fungi That Are Useful in the Protection of Oilseed Crops” (Molecules, 2024):
# How the values were obtained:
# [1] = system: Sclerotinia sclerotiorum strain FSc10; assay: In vitro antifungal activity, mycelial growth inhibition on PDA medium; format: cell-based; conditions: for IC50: log-logistic model, 0–50 µg/mL range, read-out: IC50 against Sclerotinia sclerotiorum (Ss); for inhibition of growth at 50 µg/mL / fungal growth inhibition, S. sclerotiorum: screening at basal 50 µg/mL, PDA medium, mean ± SD of three determinations; for inhibition of growth at 50 µg/mL: read-out: fungal growth inhibition, S. sclerotiorum
# Procedure: (§1) The cultures of Botrytis cinerea strain FBc05 and Sclerotinia sclerotiorum strain FSc10 were obtained from the collection of the Division of Plant Pathology and Mycology at the Department of Plant Protection of Wroclaw University of Environmental and Life Sciences (Poland). Cerrena unicolor (Bull.ex.Fr.) Murr, strain no. 139, originated from the culture collection of the Department of Biochemistry, University of Lublin (Poland). The stock cultures were maintained on potato dextrose agar at +4 °C and periodically transferred to a fresh medium.
# (§2) Prior to the fungicidal activity assay of hydrazide–hydrazones 1–35, we considered ethanol and DMSO as potential dissolution media for tested compounds. […] Furthermore, a very important aspect of biological testing is the careful selection of organic solvents. These are typically used, e.g., methanol, ethanol, acetone, and DMSO, and may be highly toxic for microorganisms in even very low concentrations, such as 1% (v/v). Ethanol and DMSO with a final concentration between 0.1 and 1.0% (v/v) in a PDA medium were used and applied to evaluate the inhibition growth of B. cinerea, S. sclerotiorum, and C. unicolor (see Supplementary Materials). The following procedure was applied to the microorganism testing. The assays of fungi inhibition growth were performed at a basal concentration of 50 µg/mL for all compounds, and detailed experiments were extended for testing between 0 and 50 µg/mL (0, 6.25, 12.5, 25.0, and 50.0 µg/mL) for selected compounds. The tests were carried out on Petri dishes (diameter 60 mm) with PDA medium containing appropriate compound, co-solvent control, and hydrazide–hydrazone dissolved in co-solvent assay. A piece of mycelium with a 5 mm edge taken from the outer edge of the growing fungi on the PDA plate with co-solvent was transferred to a central part of the PDA plate with the examined compound. The plates thus inoculated were incubated at 22 °C in the dark for a time when the control plate containing only the co-solvent was covered entirely with the tested microorganism. For B. cinerea and S. sclerotiorum, the test took 3 days, and for C. unicolor, it took 7 days. Each assay was performed at least in triplicate. […] Model parameters c and e were estimated using the nonlinear least-squares method. Parameters d and b (with two exceptions) were fixed and assumed to be equal. Based on estimated parameters, the values of IC50 were determined. […] The IC50 values were calculated only in cases when the model predicted a decrease in growth rate by more than 50%.
# (§3) In vitro antifungal activity
# (§4) Prior to the fungicidal activity assay of hydrazide-hydrazones 1–35, we considered ethanol (EtOH) and DMSO as potential dissolution media for tested compounds.
# (§5) EtOH and DMSO with a final concentration between 0.1–1.0% (v/v) in a PDA medium were applied to evaluate the inhibition growth of B. cinerea, S. sclerotiorum, and C. unicolor (see Table S3). The following procedure was applied to the microorganism testing with the hydrazide-hydrazones. The assays of fungi inhibition growth were performed at a basal concentration of 50 µg/mL for all compounds, and detailed experiments were extended for testing selected molecules 18, 19, 27, […]
# (§6) Table S2. In vitro antifungal activity for DMSO and ethanol co-solvents.
# [2] = system: Botrytis cinerea strain FBc05; assay: as above; format: cell-based; conditions: for IC50: log-logistic model, 0–50 µg/mL range, read-out: IC50 against Botrytis cinerea (Bc); for inhibition of growth at 50 µg/mL / fungal growth inhibition, B. cinerea: screening at basal 50 µg/mL, PDA medium, mean ± SD of three determinations; for inhibition of growth at 50 µg/mL: read-out: fungal growth inhibition, B. cinerea
# Procedure: as §1, §2, §3, §4, §5, §6
# [3] = system: Cerrena unicolor strain no. 139; assay: as above; format: cell-based; conditions: for inhibition of growth at 50 µg/mL / fungal growth inhibition, C. unicolor: screening at basal 50 µg/mL, PDA medium, mean ± SD of three determinations; for inhibition of growth at 50 µg/mL: read-out: fungal growth inhibition, C. unicolor
# Procedure: as §1, §2, §3, §4, §5, §6
# [4] = molecular target: laccase from Trametes versicolor; conditions: read-out: Laccase inhibition, Ki; cited from earlier work
# [5] = Sclerotinia sclerotiorum, FSC10
Compound,"inhibition of growth at 50 µg/mL ([2]; Botrytis cinerea, FBC05) [%]","inhibition of growth at 50 µg/mL ([3]; Cerrena unicolor, NO.139) [%]","fungal growth inhibition, S. sclerotiorum [1]",Ki [4] [µM],"fungal growth inhibition, B. cinerea [2]",further results
"CCO [EtOH, ethanol]",,,,,,"IC50 of co-solvent, S. sclerotiorum ([1]; co-solvent at 0.1–1.0% (v/v) in PDA medium): n.o."
"CC1(C(=O)Nc2ccc(O)c(Cl)c2Cl)CCCCC1 [Fenhexamid, reference compound]",99.9 ± 0.4,39.9 ± 0.7,,,,"inhibition at 6.25 µg/mL ([2]; Botrytis cinerea, FBC05, fungicidal profile, 6.25 µg/mL, read-out: B. cinerea inhibition): 98.5%; inhibition at 50 µg/mL ([2]; Botrytis cinerea, FBC05, fungicidal profile, 50 µg/mL, read-out: B. cinerea inhibition): 100%; IC50 ([2]; Botrytis cinerea, FBC05): 0.1 mg/L; inhibition at 6.25 µg/mL ([1]; Sclerotinia sclerotiorum, FSC10, fungicidal profile, 6.25 µg/mL, read-out: S. sclerotiorum inhibition): 95.6%; inhibition at 12.5 µg/mL ([1]; Sclerotinia sclerotiorum, FSC10, fungicidal profile, 12.5 µg/mL, read-out: S. sclerotiorum inhibition): 96.3%; IC50 [1, 5]: 4.2 mg/L; inhibition of growth at 50 µg/mL [1, 5]: 100 ± 0.3%; inhibition at 50 µg/mL ([3]; Cerrena unicolor, NO.139, fungicidal profile, 50 µg/mL, read-out: C. unicolor inhibition): 32.1%"
O=C(N/N=C/c1ccccc1)c1ccc(O)cc1 [compound 1],2.6 ± 0.2,10.6 ± 1.1,n.o.,1470,,
O=C(N/N=C/CCc1ccccc1)c1ccc(O)cc1 [compound 2],,18 ± 3.2,n.o.,1920,n.o.,
Cc1ccc(/C=N/NC(=O)c2ccc(O)cc2)cc1 [compound 3],3.3 ± 1.1,,n.o.,251,,"fungal growth inhibition, C. unicolor [3]: n.o."
CC(C)c1ccc(/C=N/NC(=O)c2ccc(O)cc2)cc1 [compound 4],12 ± 2.6,20.9 ± 2.8,n.o.,,,
O=C(N/N=C/c1ccccc1S(=O)(=O)[O-])c1ccc(O)cc1.[Na+] [compound 5],,23.6 ± 4.2,n.o.,≥ 2400,n.o.,
O=C(N/N=C/c1ccccc1O)c1ccc(O)cc1 [compound 6],4.7 ± 1.1,14.7 ± 0.3,n.o.,674,,
O=C(N/N=C/c1cccc(O)c1)c1ccc(O)cc1 [compound 7],3.7 ± 1.8,12.6 ± 4.1,n.o.,2400,,
O=C(N/N=C/c1ccc(O)cc1)c1ccc(O)cc1 [compound 8],4.2 ± 1.5,14.3 ± 1.7,n.o.,638,,
COc1ccccc1/C=N/NC(=O)c1ccc(O)cc1 [compound 9],3.3 ± 1.2,22.3 ± 2.6,n.o.,1060,,
COc1cccc(/C=N/NC(=O)c2ccc(O)cc2)c1 [compound 10],3.9 ± 2.4,,n.o.,416,,"fungal growth inhibition, C. unicolor [3]: n.o."
COc1ccc(/C=N/NC(=O)c2ccc(O)cc2)cc1 [compound 11],4.4 ± 0.9,11.7 ± 3.5,n.o.,≥ 2400,,
"O=C(N/N=C/c1ccc([N+](=O)[O-])o1)c1ccc(O)cc1 [compound 12, Nifuroxazide, reference compound]",3.3 ± 1.2,19.5 ± 2.8,no activity and n.o.,,no activity,
O=C(N/N=C/c1cc(Br)ccc1O)c1ccc(O)cc1 [compound 14],,56.8 ± 8.4,n.o.,≥ 1000,n.o.,
COc1cccc(O)c1/C=N/NC(=O)c1ccc(O)cc1 [compound 15],,43.1 ± 3,n.o.,≥ 1000,n.o.,
COc1cccc(OC)c1/C=N/NC(=O)c1ccc(O)cc1 [compound 16],,32.1 ± 3.1,n.o.,≥ 1000,n.o.,
COc1ccc(C(=O)N/N=C/c2cccc(-c3ccccc3)c2O)cc1 [compound 20],3.3 ± 1.2,35.4 ± 2.4,n.o.,≥ 1000,,
O=C(N/N=C/c1ccc(O)cc1O)c1ccc(O)cc1 [compound 21],,30.1 ± 4.3,n.o.,939,n.o.,
Cc1cc(CO)cc(/C=N/NC(=O)c2ccc(O)cc2)c1O [compound 24],,42 ± 2.1,n.o.,≥ 1000,n.o.,
Cc1ccc(C(C)C)c(O)c1/C=N/NC(=O)c1ccc(O)cc1 [compound 28],50.8 ± 2.6,38.2 ± 2.3,,> 1000,,"IC50 ([2]; Botrytis cinerea, FBC05): 52.7 mg/L; IC50 [1, 5]: 9.8 mg/L; inhibition of growth at 50 µg/mL [1, 5]: 91.4 ± 2.2%"
COc1cc(O)c(/C=N/NC(=O)c2ccc(O)cc2)c(OC)c1 [compound 29],8.1 ± 0.6,9.1 ± 1.9,n.o.,≥ 1000,,
COc1ccc(C(=O)N/N=C/c2cc(C)cc(C(C)(C)C)c2O)cc1 [compound 31],2.1 ± 0.9,13.8 ± 3.9,n.o.,25.8,,
Cc1cc(/C=N/NC(=O)c2ccccc2)c(O)c(C(C)(C)C)c1 [compound 33],3.9 ± 0.6,36.6 ± 1.2,n.o.,82,,
Cc1cc(/C=N/NC(=O)c2cccnc2)c(O)c(C(C)(C)C)c1 [compound 34],7.5 ± 0.6,29.6 ± 2.7,n.o.,,,
